# According to US20250129135A1, “Multi-Agonist and Use Thereof” (priority 2021, published 2025):
# Starred links: 1 amine or outer side, 2 acyl side, 3 side chain; linkers in the order of their positions; H or OH if unused. Non-standard residues stand in square brackets, D forms with d. Groups on a side chain read outwards from the residue. No end group written: not given here. *: point of attachment. C20 diacid = O=C(O)CCCCCCCCCCCCCCCCCCC(=O)*; γGlu = O=C(O)[C@H](CCC(=O)[*:2])N[*:1]; AEEA = NCCOCCOCC(=O)O; Aib = CC(C)(N)C(=O)O
# T1: human GIP receptor (human) (UniProt P48546)
# T1 sequence (looked up): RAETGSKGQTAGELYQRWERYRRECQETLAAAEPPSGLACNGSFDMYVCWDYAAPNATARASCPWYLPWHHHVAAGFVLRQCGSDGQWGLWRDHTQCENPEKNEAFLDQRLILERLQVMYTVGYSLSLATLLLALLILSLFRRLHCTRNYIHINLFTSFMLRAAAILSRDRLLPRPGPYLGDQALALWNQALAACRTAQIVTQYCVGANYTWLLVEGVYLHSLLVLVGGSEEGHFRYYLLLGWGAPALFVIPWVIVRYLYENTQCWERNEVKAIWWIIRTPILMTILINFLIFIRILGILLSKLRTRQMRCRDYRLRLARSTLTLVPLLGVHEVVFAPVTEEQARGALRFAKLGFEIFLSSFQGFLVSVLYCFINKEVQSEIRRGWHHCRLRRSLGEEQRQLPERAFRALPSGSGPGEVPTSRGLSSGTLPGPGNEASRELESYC
# How the values were obtained:
# GCG receptor = GCG receptor (Homo sapiens, UniProt P47871); details: background statement; cited from earlier work
# Sequence of GCG receptor (P47871 26-477): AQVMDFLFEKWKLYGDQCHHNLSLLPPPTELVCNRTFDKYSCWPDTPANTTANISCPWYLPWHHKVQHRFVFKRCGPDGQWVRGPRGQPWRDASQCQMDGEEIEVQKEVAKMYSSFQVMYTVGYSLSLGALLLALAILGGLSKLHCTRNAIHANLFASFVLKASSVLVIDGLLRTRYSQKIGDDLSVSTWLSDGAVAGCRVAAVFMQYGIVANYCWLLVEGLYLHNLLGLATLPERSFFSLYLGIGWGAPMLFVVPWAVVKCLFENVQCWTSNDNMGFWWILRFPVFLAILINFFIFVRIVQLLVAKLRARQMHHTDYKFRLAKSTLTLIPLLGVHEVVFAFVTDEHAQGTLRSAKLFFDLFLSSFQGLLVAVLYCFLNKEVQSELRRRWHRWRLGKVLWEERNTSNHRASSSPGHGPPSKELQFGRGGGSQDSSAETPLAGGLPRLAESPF
# Human GLP-1R = Human GLP-1R (Homo sapiens, UniProt P43220); details: background statement; cited from earlier work
# Sequence of Human GLP-1R (P43220 24-463, species assumed): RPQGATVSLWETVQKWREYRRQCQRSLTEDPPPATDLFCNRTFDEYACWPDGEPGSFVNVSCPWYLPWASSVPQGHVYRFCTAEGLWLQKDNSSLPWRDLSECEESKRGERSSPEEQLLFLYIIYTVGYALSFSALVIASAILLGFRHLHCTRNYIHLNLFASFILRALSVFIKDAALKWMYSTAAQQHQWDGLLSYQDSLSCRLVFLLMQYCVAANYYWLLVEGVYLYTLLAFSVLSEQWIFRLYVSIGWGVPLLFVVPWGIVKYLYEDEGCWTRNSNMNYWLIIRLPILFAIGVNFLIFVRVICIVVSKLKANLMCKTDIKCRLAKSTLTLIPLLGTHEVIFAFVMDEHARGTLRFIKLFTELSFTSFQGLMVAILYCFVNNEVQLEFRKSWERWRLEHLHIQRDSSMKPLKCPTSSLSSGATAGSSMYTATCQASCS
# [1] = 26 weeks, cited from earlier work
# [2] = Phase II clinical study, cited from earlier work
# C57 BL/6J DIO mice = assay: In vivo pharmacodynamics in high-fat diet induced obesity (DIO) mice; set-up: species or system mouse; details: Mean±SEM; for Weight change: Table 6-1; for LDL-C / TC (total cholesterol) / TG (plasma triglycerides): Table 7-1, Day 15
# Description: High-fat diet induced obesity (DIO) mice have characteristics such as obesity, elevated blood sugar, insulin resistance, and lipid abnormalities, all of which are very significant metabolic syndromes similar to a human body. The effects of the compounds of the present application on body weight, food intake, blood sugar, and lipids in C57 BL/6J DIO mice were studied.
# Obesity was induced in mice by feeding with a high-fat diet (60 kcal % of calories from fat). […] After grouping, one animal was raised in each cage for one week, during which each of the animals was injected subcutaneously (S.C.) with a solvent (1×PBS, 5 ml/kg) to pre-adapt the experimental operation process.
# After the preparation of animals, vehicle control or compounds were administered to groups of animals by subcutaneous injection, in which the compounds were dissolved in 1×PBS, the dosage was 5 ml/kg, and the administration operation was started at 9:00 am and conducted once every three days (Q3D) for 15 days. Throughout the entire experimental study, animal weight and food intake were measured daily before administration, and compared with initial weight and food intake of the same animal before administration to calculate a percentage change in animal weight (%) and cumulative food intake, so as to evaluate the impact of compounds on changes in body weight and food intake.
# At the end point of the experiment (Day 15), the body weight of the mice was measured, and then fasting blood glucose was measured by taking blood from the tail tip of broken tail without anesthesia. After the blood collection, the animals were anesthetized with CO2 and euthanized. Then, blood was taken from the heart and plasma was separated by centrifugation. The plasma was used to measure total cholesterol (TC), low-density lipoprotein cholesterol (LDL-C), triglycerides (TG), and blood insulin content. The liver was separated for homogenization, and then centrifuged to obtain the supernatant for determining triglyceride content in the liver.
# All results were expressed in Mean±SEM, and the results were analyzed by one-way ANOVA using GraphPad Prism 5 software, followed by Dunnett's post hoc test compared to the Vehicle control group. The difference at the p<0.05 level was considered statistically significant.
# [3] = molecular target: T1, human GIP receptor (human); assay: cell-based or functional assay
molecule,measurement,setting,value
CCCCCCCCCCCCCCCC(=O)N[C@@H](CCC(=O)NCCCC[C@H](NC(=O)[C@H](CC(=O)O)NC(=O)[C@H](CO)NC(=O)[C@@H](NC(=O)[C@H](Cc1ccccc1)NC(=O)[C@@H](NC(=O)CNC(=O)[C@H](CCC(N)=O)NC(=O)[C@H](CO)NC(=O)[C@@H](N)Cc1c[nH]cn1)[C@@H](C)O)[C@@H](C)O)C(=O)N[C@@H](CO)C(=O)N[C@@H](CCC(=O)O)C(=O)N[C@@H](Cc1ccc(O)cc1)C(=O)N[C@@H](CC(C)C)C(=O)N[C@@H](CC(=O)O)C(=O)N[C@@H](CO)C(=O)N[C@@H](CCC(=O)O)C(=O)N[C@@H](CCCNC(=N)N)C(=O)N[C@@H](C)C(=O)N[C@@H](CCCNC(=N)N)C(=O)N[C@@H](CC(=O)O)C(=O)N[C@@H](Cc1ccccc1)C(=O)N[C@H](C(=O)N[C@@H](C)C(=O)N[C@@H](Cc1c[nH]c2ccccc12)C(=O)N[C@@H](CC(C)C)C(=O)N[C@@H](CCC(=O)O)C(=O)N[C@@H](C)C(=O)NCC(=O)NCC(=O)O)C(C)C)C(=O)O [Cotadutide],GCG receptor relative activity EC50,GCG receptor,12.8%
same,GLP-1 receptor activity EC50 relative to wild-type GLP-1,Human GLP-1R,29%
same,"body weight, blood lipids, and levels of ALT and AST",[1]; 100-300 μg compared to liraglutide,dose-dependent reduction
same,reduction of HbA1c,[1]; each dose group compared to liraglutide,no significant advantage
"CC[C@H](C)[C@H](NC(=O)[C@H](CC(C)C)NC(=O)[C@H](Cc1c[nH]c2ccccc12)NC(=O)[C@H](CCC(N)=O)NC(=O)[C@@H](NC(=O)[C@H](Cc1ccccc1)NC(=O)[C@H](C)NC(=O)[C@H](CCCCNC(=O)COCCOCCNC(=O)COCCOCCNC(=O)CC[C@H](NC(=O)CCCCCCCCCCCCCCCCCCC(=O)O)C(=O)O)NC(=O)[C@H](CCC(N)=O)NC(=O)[C@H](C)NC(=O)[C@@H](NC(=O)[C@H](CCCCN)NC(=O)[C@H](CC(=O)O)NC(=O)[C@H](CC(C)C)NC(=O)C(C)(C)NC(=O)[C@@H](NC(=O)[C@H](CO)NC(=O)[C@H](Cc1ccc(O)cc1)NC(=O)[C@H](CC(=O)O)NC(=O)[C@H](CO)NC(=O)[C@@H](NC(=O)[C@H](Cc1ccccc1)NC(=O)[C@@H](NC(=O)CNC(=O)[C@H](CCC(=O)O)NC(=O)C(C)(C)NC(=O)[C@@H](N)Cc1ccc(O)cc1)[C@@H](C)O)[C@@H](C)O)[C@@H](C)CC)[C@@H](C)CC)C(C)C)C(=O)N[C@@H](C)C(=O)NCC(=O)NCC(=O)N1CCC[C@H]1C(=O)N[C@@H](CO)C(=O)N[C@@H](CO)C(=O)NCC(=O)N[C@@H](C)C(=O)N1CCC[C@H]1C(=O)N1CCC[C@H]1C(=O)N1CCC[C@H]1C(=O)N[C@@H](CO)C(N)=O [Tirzepatide, reference compound]",hypoglycemic effect,[2]; 1 mg dose vs Dulaglutide 1.5 mg,significantly lower than that of Dulaglutide 1.5 mg
same,weight loss effect,[2]; 1 mg dose,almost no weight loss effect
same,Weight change,C57 BL/6J DIO mice; 3 nmol/kg s.c. Q3D for 15 days,−16.1 ± 0.71%
same,Weight change,C57 BL/6J DIO mice; 10 nmol/kg s.c. Q3D for 15 days,−21.6 ± 0.99%
same,Weight change,C57 BL/6J DIO mice; 30 nmol/kg s.c. Q3D for 15 days,−32.6 ± 1.60%
same,LDL-C,C57 BL/6J DIO mice; 3 nmol/kg,0.62 ± 0.065 mM
same,TC (total cholesterol),C57 BL/6J DIO mice; 3 nmol/kg,4.12 ± 0.322 mM
same,TG (plasma triglycerides),C57 BL/6J DIO mice; 3 nmol/kg,0.97 ± 0.050 mM
same,LDL-C,C57 BL/6J DIO mice; 30 nmol/kg,0.57 ± 0.057 mM
same,TC (total cholesterol),C57 BL/6J DIO mice; 30 nmol/kg,3.28 ± 0.259 mM
same,TG (plasma triglycerides),C57 BL/6J DIO mice; 30 nmol/kg,0.79 ± 0.068 mM
Y[Aib]QGTFTSDYSI[Aib]LDKIAQK([AEEA-AEEA-γGlu-C20 diacid])AFVQWLIAGGPSSGAPPPS-NH2 (N-terminus assumed; SMILES CC[C@H](C)[C@H](NC(=O)[C@H](CC(C)C)NC(=O)[C@H](Cc1c[nH]c2ccccc12)NC(=O)[C@H](CCC(N)=O)NC(=O)[C@@H](NC(=O)[C@H](Cc1ccccc1)NC(=O)[C@H](C)NC(=O)[C@H](CCCCNC(=O)COCCOCCNC(=O)COCCOCCNC(=O)CC[C@H](NC(=O)CCCCCCCCCCCCCCCCCCC(=O)O)C(=O)O)NC(=O)[C@H](CCC(N)=O)NC(=O)[C@H](C)NC(=O)[C@@H](NC(=O)[C@H](CCCCN)NC(=O)[C@H](CC(=O)O)NC(=O)[C@H](CC(C)C)NC(=O)C(C)(C)NC(=O)[C@@H](NC(=O)[C@H](CO)NC(=O)[C@H](Cc1ccc(O)cc1)NC(=O)[C@H](CC(=O)O)NC(=O)[C@H](CO)NC(=O)[C@@H](NC(=O)[C@H](Cc1ccccc1)NC(=O)[C@@H](NC(=O)CNC(=O)[C@H](CCC(N)=O)NC(=O)C(C)(C)NC(=O)[C@@H](N)Cc1ccc(O)cc1)[C@@H](C)O)[C@@H](C)O)[C@@H](C)CC)[C@@H](C)CC)C(C)C)C(=O)N[C@@H](C)C(=O)NCC(=O)NCC(=O)N1CCC[C@H]1C(=O)N[C@@H](CO)C(=O)N[C@@H](CO)C(=O)NCC(=O)N[C@@H](C)C(=O)N1CCC[C@H]1C(=O)N1CCC[C@H]1C(=O)N1CCC[C@H]1C(=O)N[C@@H](CO)C(N)=O) [Tirzepatide],"cAMP EC50, CHO cells stably overexpressing human GIP R",[3],210 pM
same,"cAMP Rel. A (%) against human GIP, human GIP R cells",[3],86.2%
